The record followed here is PubChem BioAssay (NCI).

Assay in all cases: NCI tumour cell line growth inhibition, 48 h
Assay [1] relates to CCRF-CEM leukemia.
The test system of assay [2] is HCT-116 colon.
Assay [3] relates to HOP-92 NSCLC.
Assay [4] concerns OVCAR-3 ovarian.
In assay [5] the test system is RPMI-8226 leukemia.
Assay [6] concerns SF-295 CNS.
In assay [7] the test system is SK-MEL-28 melanoma.
The subject of assay [8] is SN12C renal.
The test system of assay [9] is SNB-75 CNS.
The test system of assay [10] is SR leukemia.

Where “and” joins values, the source holds several entries; their conditions need not be identical. Equal values may be shown once.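 Following 48 hours of exposure in 96-well plates, responses at five concentrations were used to interpolate endpoints linearly. GI50: concentration for 50% inhibition of growth. TGI is the concentration that stops growth completely.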

Take `Cc1cc(C)n(CCNCCn2nc(C)cc2C)n1`: the TGI in [1], in [2], in assay [3], in assay [4], in assay [5] and in assay [6] was more than 100 µM each time. The TGI in assay [7], in assay [8], in assay [9] and in assay [10] was more than 100 µM each time.
For `COc1ccc(-n2cc(-c3ccc(Cl)c(Cl)c3)nc2SCc2cccc(C#N)c2)cc1`, the GI50 was more than 100 µM in [1]; 4.55 µM in assay [2]; 10.1 µM in [3]; 17 µM in assay [4]; more than 100 µM in [5]; 22.2 µM in assay [6]. The GI50 in [7] is 20.2 µM; in assay [8], 14 µM; in assay [9], 17 µM; in assay [10], more than 100 µM. The TGI was more than 100 µM in assay [1]; more than 100 µM in assay [2]; 40.3 µM in assay [3]; more than 100 µM in assay [4]; more than 100 µM in [5]; more than 100 µM in assay [6]. The TGI is more than 100 µM in [7], 35.7 µM in assay [8], 53.4 µM in assay [9] and more than 100 µM in [10].
Consider `N#CC(C(=O)/C(=N/Nc1nc(=S)[nH]n1N)C(C#N)c1ccccc1)c1ccccc1` (centres undefined), for which the TGI in assay [1], in assay [2], in assay [3], in [4], in assay [5] and in assay [6] was more than 100 µM in each case. Besides, the TGI in assay [7], in [8], in assay [9] and in assay [10] was more than 100 µM each time.
Consider `O=C(O)c1c(-c2nccc3ccccc23)[nH]c(-c2ccccc2)c1S(=O)(=O)O`, for which the TGI in assay [1], in [2], in [3], in [4], in [5] and in assay [6] was more than 100 µM in each case. The TGI in assay [7], in assay [8], in assay [9] and in assay [10] was more than 100 µM each time.
For `CC(C)(C)N1CC2(CCCCC2)C1=O`, the TGI in [1], in assay [2], in [3], in assay [4], in assay [5] and in [6] was more than 100 µM throughout. The TGI in assay [7], in assay [8], in [9] and in assay [10] was more than 100 µM in each case.
As for `O/N=C\c1c(O)ccc2ccccc12`, the TGI in [1] was more than 100 µM; in assay [2], more than 100 µM; in assay [3], more than 100 µM; in assay [4], 66.7 µM; in assay [5], more than 100 µM; in assay [6] it was more than 100 µM. In addition, the TGI in assay [7] is more than 100 µM; in [8] it was more than 100 µM; in assay [9] it was more than 100 µM; in assay [10], 82.1 µM.
As for `N#CC(/C(=N/NC(=O)C(=O)NN)C(=O)NC12CC3CC(CC(C3)C1)C2)c1ccccc1` (centres undefined), the TGI in [1], in assay [2], in assay [3], in assay [4], in [5] and in assay [6] was more than 100 µM each time. For the same compound, the TGI in [7], in [8], in assay [9] and in [10] was more than 100 µM throughout.
With `CC(=O)c1c(CBr)n([O-])c2ccccc2[n+]1=O`, the GI50 is 2.14 µM in assay [1]; 1.36 µM in assay [2]; 7.36 µM in assay [3]; 3.14 µM in [4]; 4.9 µM in assay [5]; 19.8 µM in assay [6]. The GI50 is 13 µM in assay [7], 14.1 µM in assay [8], 14.7 µM in assay [9] and 3.22 µM in [10]. Moreover, the TGI is 8.12 µM in assay [1]; 2.89 µM in assay [2]; 24 µM in assay [3]; 7.67 µM in assay [4]; 30.5 µM in [5]; 43.8 µM in assay [6]. Moreover, the TGI in [7] was determined as 27.7 µM; in assay [8], 27.3 µM; in assay [9], 29.6 µM; in assay [10] it was 8.03 µM.
Consider `CN1CCc2c(Sc3ccc(C(=O)NO)cc3)c3ccccc3n2C1`, for which the GI50 is 1.87 µM in assay [1]; 1.7 µM in assay [2]; 2 µM in [3]; 2.16 µM in assay [4]; 1.36 µM in assay [5]; 2.13 µM in assay [6]. Further, the GI50 in assay [7] is 1.58 µM; in assay [8], 2.61 µM; in assay [9], 0.674 µM; in [10], 2.69 µM. Moreover, the TGI is more than 24.9 µM in assay [1]; 3.97 µM in assay [2]; 6.88 µM in assay [3]; 6.74 µM in assay [4]; 11.1 µM in [5]; 4.84 µM in [6]. For the same compound, the TGI in [7] is 3.98 µM; in assay [8] it was 9.78 µM; in [9], 3.79 µM; in assay [10], 9.92 µM.
With `COc1ccc(/C=c2/sc3n(c2=O)C(c2ccc(OC)c(OC)c2)C2=C(N=3)c3cc(F)ccc3OC2)cc1` (centres undefined), the GI50 was more than 55.7 µM in [1]; 17.4 µM in assay [2]; 14.3 µM in [3]; 2.54 µM in assay [4]; more than 25 µM in assay [5]; 15.7 µM in assay [6]. The GI50 is 51.5 µM in assay [7], 3.45 µM in [8], 16.1 µM in assay [9] and 60.9 µM in assay [10]. Besides, the TGI in assay [1] is more than 100 µM; in assay [2] it was more than 100 µM; in assay [3] it was more than 65 µM; in assay [4], 14.1 µM; in [5], 99.7 µM; in assay [6], 54.1 µM. Further, the TGI is more than 96.6 µM in assay [7], more than 54.9 µM in assay [8], 98.2 µM in assay [9] and more than 100 µM in [10].
On to `O=C(N/N=C\c1cc(Br)ccc1O)c1ccncc1`, for which the GI50 is 0.423 µM in assay [1]; 1.8 µM in [2]; 2.22 µM in assay [3]; 0.435 µM in assay [4]; 3.08 µM in [5]; 3.47 µM in assay [6]. The GI50 is 3.52 µM in assay [7], 4.63 µM in assay [8], 4.83 µM in assay [9] and 2.45 µM in [10]. Further, the TGI in [1] is more than 100 µM; in assay [2] it was more than 100 µM; in assay [3], 45.4 µM; in assay [4], 39.8 µM; in assay [5], more than 100 µM; in [6], more than 100 µM. Moreover, the TGI in assay [7] is more than 100 µM; in assay [8], more than 100 µM; in assay [9], 51.1 µM; in [10], more than 100 µM.
Consider `N#CC1(C2SCCS2=O)C2=C(C(=O)c3ccccc3C2=O)N2CCCC21` (centres undefined), for which the TGI was found to be 24.5 µM in assay [1]; 5.56 µM in assay [2]; 11.9 µM in assay [3]; 2.04 µM in assay [4]; 9.91 µM in [5]; 7.82 µM in [6]. Also, the TGI in assay [7] was determined as 7.8 µM; in [8] it was 6.71 µM; in [9] it was 8.04 µM; in [10], 20.7 µM.
Take `O=C(Nc1cccc(Cl)c1)c1cc2ccccc2cc1O`: the GI50 in assay [1] was 5.58 µM and 8.61 µM; in [2], 1.68 µM and 0.828 µM; in [3] it was 0.41 µM and 0.306 µM; in assay [4] it was 1.43 µM; in assay [5], 1.52 µM and 0.535 µM; in assay [6] it was 4.11 µM and 13.1 µM. Also, the GI50 in [7] is 2.69 µM and 0.554 µM; in assay [8] it was 2.05 µM and 1.76 µM; in [9], 1.62 µM and 1.55 µM; in assay [10] it was 3.9 µM and 3.79 µM. Also, the TGI was more than 100 µM in [1]; > 100 µM and 21.1 µM in assay [2]; 3.66 µM and 0.973 µM in assay [3]; more than 100 µM in assay [4]; more than 100 µM in [6]; more than 100 µM in assay [7]. The TGI in [8], in assay [9] and in assay [10] was more than 100 µM each time.
Consider `Cc1cc(NC(=O)c2ccc(C)c(Nc3nccc(-c4cccnc4)n3)c2)cc(-n2cnc(C)c2)c1`, for which the GI50 in assay [1] is 0.134 µM; in assay [2], 0.932 µM; in assay [3], 0.716 µM; in assay [4], 1.87 µM; in assay [5], 6.45 µM; in assay [6] it was 3.07 µM. Moreover, the GI50 in [7] is 1.71 µM; in assay [8], 0.005 µM; in assay [9], 1.1 µM; in assay [10], 2.46 µM. Also, the TGI was more than 50 µM in [1]; 3.28 µM in assay [2]; 2.78 µM in [3]; 4.83 µM in assay [4]; 27.6 µM in assay [5]; 12.2 µM in [6]. Further, the TGI stood at 6.19 µM in assay [7], 12.8 µM in assay [8], 2.81 µM in assay [9] and 11.8 µM in assay [10].
In the case of `CN(C)c1ccc2nc3ccc(=O)cc-3sc2c1`, the GI50 in [1] was 0.694 µM; in assay [2] it was 1.16 µM; in [3], 1.46 µM; in assay [4], 0.598 µM; in assay [5] it was 0.199 µM; in assay [6], 1.52 µM. Moreover, the GI50 in assay [7] was 4.6 µM; in [8] it was 0.865 µM; in [9] it was 11.7 µM; in assay [10] it was 0.884 µM. Besides, the TGI is 58.1 µM in assay [1]; 8.47 µM in [2]; 29.5 µM in assay [3]; more than 28.1 µM in [4]; 53 µM in assay [5]; 10.9 µM in assay [6]. For the same compound, the TGI is 27.1 µM in assay [7], more than 79 µM in [8], more than 100 µM in [9] and more than 46.5 µM in assay [10].
As to `NC(=O)C(=CNc1nc(-c2ccc(Cl)c(Cl)c2)cs1)C(N)=O`, the GI50 in [1] is 20.4 µM; in assay [2] it was more than 100 µM; in assay [3] it was more than 100 µM; in assay [4], 41.6 µM; in assay [5], 40.4 µM; in assay [6], 37.1 µM. Moreover, the GI50 is more than 100 µM in [7], more than 100 µM in [8], more than 100 µM in [9] and 38.7 µM in assay [10]. For the same compound, the TGI in assay [1], in assay [2], in assay [3], in [4], in assay [5] and in assay [6] was more than 100 µM throughout. For the same compound, the TGI in assay [7], in [8], in [9] and in assay [10] was more than 100 µM in each case.
Consider `Cc1sc2nc(NCCc3c[nH]c4ccc(Cl)cc34)[nH]c(=O)c2c1C`, for which the GI50 in [1] was 2.63 µM; in assay [2] it was 1.84 µM; in assay [3], 2.06 µM; in assay [4], 3.26 µM; in assay [5] it was 2.45 µM; in [6], 3.53 µM. The GI50 in assay [7] is 4.08 µM; in assay [8], 2.38 µM; in assay [9], 1.65 µM; in [10] it was 1.81 µM. Further, the TGI in assay [1] came out at 14.2 µM; in assay [2] it was 7.07 µM; in assay [3], 5.64 µM; in assay [4], 12.7 µM; in assay [5] it was 7.9 µM; in assay [6] it was 13.4 µM. The TGI stood at 15.7 µM in [7], 6.59 µM in assay [8], 5.21 µM in assay [9] and 8.52 µM in assay [10].
With `O=C1/C(=C\c2cccn2Cc2ccccc2)c2ccccc2N1c1c(Cl)cccc1Cl`, the GI50 in assay [1] is more than 100 µM; in assay [2], 7.36 µM; in assay [3], 1.52 µM; in assay [4], 1.32 µM; in [5], 1.3 µM; in assay [6], more than 100 µM. Also, the GI50 is more than 100 µM in assay [7], more than 100 µM in [8], more than 22.9 µM in [9] and more than 73.4 µM in assay [10]. The TGI is more than 100 µM in [1]; more than 100 µM in [2]; 28.8 µM in assay [3]; more than 48.7 µM in [4]; more than 100 µM in assay [5]; more than 100 µM in [6]. In addition, the TGI in assay [7], in assay [8], in assay [9] and in [10] was more than 100 µM in each case.
